Values of other authors in US7851464B2, “Spirolactam aryl CGRP receptor antagonists” (Merck Sharp & Dohme Corp., priority 2005, dated 2010).
Ends that are not written are not given here.

Experiments:
rats = conditions: prior administration, Williamson et al. 1997
rat = conditions: Escott et al. 1995
marmoset = conditions: Doods et al. 2000

Compound | effect on increase of middle meningeal artery diameter (rats) | effect on increase of facial blood flow (rat) | effect on increase of facial blood flow (marmoset)
CGRP(8-37): a peptide CGRP antagonist; fragment of CGRP that lacks seven N-terminal amino acid residues (VTHRLAGLLSRSGGVVKNNFVPTNVGSKAF; ends and bridges not checked; UniProt P06881 90-119, looked up, fragment) | blocked | inhibited | 
NCCCC[C@H](NC(=O)[C@@H](Cc1cc(Br)c(O)c(Br)c1)NC(=O)N1CCC(N2Cc3ccccc3NC2=O)CC1)C(=O)N1CCN(c2ccncc2)CC1 [BIBN4096BS] |  |  | blocked
